The conditions of series [1]: data from Song et al., cited from earlier work.
Series [2] is described as follows: Photophysical properties of fluorophores and RNA-fluorophore complexes (Squash study). The series is classed as physicochemical. How it is done: All RNAs used for in vitro studies (except the initial hits from SELEX and the DE2-6 mutants) were purified using 8% denaturing PAGE (7M urea) and eluted in 0.3 M NaOAc (pH 5.2) overnight. The RNA was ethanol precipitated and quantified using absorbance in a NanoDrop 2000 spectrometer. All in vitro RNA properties were measured in 40 mM HEPES-KOH (pH 7.4), 100 mM KCl, 0.5 mM MgCl2 buffer unless specified.
Absorption, excitation, and emission spectra were measured using conditions where the RNA is in excess and the fluorophore is limiting to ensure that no free fluorophore contributes to the absorbance or fluorescence signal (FIGS. 7A-7D).
All quantum yields were determined by comparing each RNA-fluorophore complex with Broccli-DFHBI-1T or Corn-DFHO. All measurements for quantum yield were taken in the presence of excess RNA (10 μM final) compared to the fluorophores (0.2 μM final) to avoid interference from unbound fluorophore. The integral of the emission spectra for each Squash-fluorophore complex was compared with the corresponding integrals for Broccoli or Corn to calculate the quantum yield.

A short description of series [3]: Fluorescence activation of DFHBI-1T by aptamers in vitro. The series is classed as biochemical. An excerpt: FIG. 1A is a schematic illustrating the strategy for evolution of the add A-riboswitch aptamer. Indicated are helices P1-P3, junctional strands (J1/2, J2/3, J3/1), kissing loop (gray lines), and adenine interactions with the aptamer (dotted line) (5′-CUUCAUAUAAUCCUAAUGAUAUGGUUUGGGAGUUUCUACCAAGAGCCUUAAACUCUUGAUUAUGAAG-3′ (SEQ ID NO:36)). The chemical structure of adenine and fluorophores are shown. Three regions (Region 1: 5′-UAU AAU-3′ (SEQ ID NO:37)), Region 2: 5′-AGU UUC UAC C-3′ (SEQ ID NO:38); Region 3: 5′-GAU UAU-3′ SEQ ID NO:39), which include J1/2, J2/3, and J3/1 were randomized in both size and sequence resulting in a sprouts/clips library for SELEX. Each nucleotide in the colored regions was replaced using a combination of random stochastic deletion (designated “N”) and random stochastic insertion (designated “n”). FIG. 1B is schematic showing a three dimensional structure of the add A-riboswitch aptamer highlighting the adenine-binding pocket (PDB 1Y26). The mutagenized regions are shown in the same color as FIG. 1A. Adenine is indicated by the arrow. FIG. 1C is a schematic illustrating the evolution of the add A-riboswitch aptamer into Squash, a DFHBI-1T-binding aptamer. The sprouts/clips library was selected for binding to DFHBI-conjugated agarose resulting in aptamer 9-1. Aptamer 9-1 was subjected to two consecutive rounds of directed evolution generating DE2-6. A pair of mutations was introduced in DE2-6 to strengthen the kissing loop interaction resulting in Squash. FIG. 1D is a graph showing fluorescence activation of DFHBI-1T by different aptamer intermediates that led to Squash. The values inside the bars indicate fold-activation of DFHBI-1T fluorescence by the corresponding aptamer. Data represent mean values±s.d. for n=3 independent experiments. […]
(§1) FIG. 6A is a bar graph showing fluorescence activation of DFHO by Squash and its precursors. Fluorescence was measured with 200 nM dye and 10 μM RNA (ex: 495 nm, em: 562 nm, except for Corn; ex: 505 nm, em: 545 nm). […] FIG. 6B is a bar graph showing fluorescence of initial hits after Round 7 of SELEX. In vitro transcribed RNAs from each hit (1 μM final) were mixed with DFHBI-1T (10 μM final) and the fluorescence was measured (ex: 452 nm, em: 503 nm, except for Broccoli; ex: 472 nm, em: 507 nm). […] FIGS. 6C-6D are bar graphs showing fluorescence measurements of the hits with DFHBI-1T after first (FIG. 6C) and second (FIG. 6D) round of directed evolution, measured as in FIG. 6B. […] FIG. 6E is a bar graph showing fluorescence measurements of hits using DFHO after the second round of directed evolution measured as in FIG. 6A. The fluorescence of the hits were normalized against Corn. […] FIG. 6F is a graph showing normalized fluorescence. […] Fluorescence was measured as in FIG. 6A. […]

The nature of series [4]: Fluorescence activation of DFAME by aptamers in vitro. The series is classed as biochemical. To be noted: in vitro. How it is done:
To test whether Beetroot can activate DFHO, the fluorescence emission spectrum of the Beetroot-DFHO complex was measured. In brief, 20 μM Beetroot and 2 μM DFHO were mixed, and the fluorescence emission of the Beetroot-DFHO complex was measured. […] To test whether Beetroot can activate DFHBI-1T, the fluorescence emission spectrum of the Beetroot-DFHBI-1T complex was measured using the same protocol described in FIG. 32A. […] To test whether Beetroot can activate BI, the fluorescence emission spectrum of the Beetroot-BI complex was measured using the same protocol described in FIG. 32A. […] To test whether Corn can activate DFAME, the fluorescence emission spectrum of the Corn-DFAME complex was measured using the same protocol described in FIG. 32A.
The eluted RNAs were then ethanol precipitated, reverse transcribed, PCR amplified and in vitro transcribed to yield the pool for the next SELEX round. The presence of fluorescent RNA species in each pool was assessed by mixing 20 μM RNA and 10 μM DFAME and measuring fluorescence emission of this solution on a fluorometer in comparison with the fluorophore alone. At this point, RNAs were cloned into bacterial expression plasmids for FACS-based screening.
dsDNA encoding the top-performing RNA sequences from the brightest bacterial colonies was PCR amplified from the purified plasmids. […] The resulting RNA was then purified using Zymo RNA concentrator columns and quantified by absorbance using a Thermo Scientific NanoDrop 2000 spectrophotometer. For absorption, excitation and emission spectra measurements, “excess RNA” conditions and limiting amount of fluorophore was used to ensure that no free fluorophore contributes to the absorbance or fluorescence signal. The RNA concentration used for fluorescence and absorbance measurements was 20 μM and 50 μM, respectively, while the dye concentration was 2 μM and 5 μM, respectively. All in vitro RNA properties were measured in 40 mM HEPES pH 7.4, 100 mM KCl, 5 mM MgCl2 buffer, unless specified.

A short description of series [5]: Fluorescence activation of DFHO by aptamers in vitro. The series is classed as biochemical.
Excerpt: FIG. 2A is a schematic showing the secondary structure of Squash as predicted by mFOLD (Squash: 5′-GGCUACAAGGUGAGCCCAAUAAUACGGUUUGGGUUAGGAUAGGAAGUAGAGCCGUAAACUCUCUAAGCGGUAGUC-3′ (SEQ ID NO:1)). Squash retained the main structural elements of add A-riboswitch aptamer including a 3-way junction and predicted kissing loop interactions (residues at positions 30, 31, 56, and 57, solid gray line). An additional base pair in the kissing loop between loop L2 and L3 (residues at positions 29 and 58, dotted gray line) improved fluorescence activation. […] Shown are the excitation (Ex) and emission (Em) spectra of Squash bound to DFHBI-1T and DFHO (structures shown in inset). Spectra were measured using 20 μM RNA and 2 μM of the indicated fluorogenic dye. […] Fluorescence activation was measured by incubating 200 nM dye and 10 μM RNA. By using a large excess of RNA compared to the fluorophore, it was ensured that the fluorescence observed is from 200 nM RNA-fluorophore complex. Data represent mean values±s.d. for n=3 independent experiments. The values inside the bars indicate fold activation. AU, arbitrary units. FIG. 2D is a graph showing the dissociation constant (Kd) between Squash and DFHO as measured by titration of 50 nM Squash with increasing concentration of DFHO, and fitted using a one-site saturation model. […] FIG. 2E is a bar graph showing the results of an experiment in which Squash-DFHO fluorescence was measured in buffers containing exclusively the indicated cations. […] Similar to the parental add A-riboswitch aptamer (see Lemay et al., “Folding of the Adenine Riboswitch,” Chem. Biol. 13:857-868 (2006), which is hereby incorporated by reference in its entirety), Squash-DFHO has a low magnesium requirement for fluorescence activation. […]
as §1

Setting [6] is: 40 mM HEPES-KOH (pH 7.4), 100 mM KCl, 0.5 mM MgCl2.

Like-named read-outs stand apart in the source and are kept apart here. Marks after values point to notes of the source that are not given here.

As for `CN1C(=O)/C(=C/c2cc(F)c(O)c(F)c2)N=C1/C=N/O` [DFHO, 4-(3,5-difluoro-4-hydroxybenzylidene)-1-methyl-5-oxo-4,5-dihydro-1H-imidazole-2-carbaldehyde oxime], the Extinction coefficient was 19,800 M^−1cm^−1 in series [1] (DFHO alone, at 505 nm, pH 7.4 buffer) and 27,000** M^−1cm^−1 in series [2] (free DFHO, at 495 nm). Also, the Emission maximum in series [1] and in series [2] (setting [6]) was 561 nm throughout. Also, the Excitation maximum in series [1] and in series [2] (setting [6]) was 473 nm each time. Also, the Fluorescence quantum yield in series [1] and in series [2] (compared with Broccoli-DFHBI-1T or Corn-DFHO) was 0.0006 each time. Also, the entries for the “Brightness (extinction coefficient × quantum yield)” value in series [1] (relative to Corn-DFHO) and in series [2] (relative to Corn) were 0.16 and 0.22, respectively.

B1: 9-1: initial SELEX hit from sprouts/clips library, SEQ ID NO: 9 (nucleic acid)
chain: GCCUAGGCUUCAAGGUGGCCCAAUGAUAUGGUUUGGGUUAGGAUAGGAAUAAGAGCCUUAAACUCUUCAAAGCGGAAGUCUAGGC
modifications: listed as RNA, chemistry not given here
Regarding B1, the “Fold activation of DFHBI-1T fluorescence” value in series [3] is approximately 521 fold.

B2: 10-1: RNA aptamer from 10 rounds of SELEX that binds DFAME, SEQ ID NO: 95 (nucleic acid)
chain: GCUUCCGUGCGACAUCAUGCGCGCGACUGCUUCGGCAGAGGUGGGUGGUGUGGAGGAGUAUCUG
modifications: RNA, backbone not given here
For B2, the “Fold fluorescence enhancement of DFAME” value in series [4] is “threefold”.

B3: DE1-2: brightest aptamer of first directed evolution, SEQ ID NO: 10 (nucleic acid)
chain: GCCUAGGCUUCAAGGUGAGCCCAAUAAUAUGGUUUGGGUUAGGAUAGGAAGAAGAGCCUUAAACUCUCUAAGCGGAAGUCUAGGC
modifications: listed as RNA, chemistry not given here
B3: in series [3], the “Fold activation of DFHBI-1T fluorescence” value was “approximately 790 fold”.

B4: DE2-6: aptamer of second directed evolution, SEQ ID NO: 11 (nucleic acid)
chain: GCCUAGGCUACAAGGUGAGCCCAAUAAUAUGGUUUGGGUUAGGAUAGGAAGUAGAGCCUUAAACUCUCUAAGCGGUAGUCUAGGC
modifications: listed as RNA, chemistry not given here
Regarding B4, the “Fold activation of DFHO fluorescence” value in series [5] is approximately 492 fold. For the same molecule, in series [3], the “Fold activation of DFHBI-1T fluorescence” value was “approximately 949 fold”.

The values above are taken from patent US20250043290A1, “RNA SEQUENCES THAT INDUCE FLUORESCENCE OF SMALL MOLECULE FLUOROPHORES, MOLECULAR COMPLEXES, SENSORS, AND METHODS OF USE THEREOF” (CORNELL UNIVERSITY, priority 2021, published 2025).
